# “And” between values parts separate entries of the source, which are not always exact repeats. Identical values can stand only once.
# What was measured:
# SH-SY5Y-TrkA [1] = test: Differentiation of TrkA cells, live cell images at 72 hours; details: for Experimentally measured percentage of differentiated cells: SH-SY5Y-TrkA, ligand NGF; for Experiment (biological outcome): SY5Y-TrkA ± NGF
# Procedure: SH-SY5Y cells stably expressing TrkA or TrkB receptors were stimulated with 100 ng/ml NGF or BDNF, respectively. Differentiation and proliferation were assessed 72 hours after growth factor treatment.
# In FIGS. 35A-F, the live cell images are accompanied by bar plots showing the percentage of differentiated cells. The percentages were obtained by examining three images for each set of conditions, and counting the total number of cells and the number of differentiated cells.
# FIG. 52 is a bar plot showing the percentage of differentiated cells for different treatments, measured by counting cells in images and calculating the ratio of differentiated cells to total cells.
# SH-SY5Y-TrkB [2] = test: cSTAR analysis of RPPA perturbation data (STV dot product P, DPD output S), TrkB cells; format: cell-based, human; details: for Change in the DPD output ΔS / DPD output S: SH-SY5Y-TrkB, ligand BDNF, 45 minutes, calculated from RPPA data
# From the text: (§1) Thus, we use this dimensionality reduced STV for estimating the network effects and biological outcomes of experimental perturbations. For each perturbation we determine a perturbation vector that connects the centroids of the point clouds that have been obtained before and after the perturbation. This vector changes the cell phenotype when it pushes the centroid of the original point cloud across the plane that separates different cell states, stabilizes a cell state when moving the centroid away from the separation plane, or has no effect when it is (nearly) parallel to the separation plane.
# (§2) These outcomes can be quantified by determining the dot product (P) of the perturbation vector and the dimensionality reduced STV.
# TrkB cells were treated with the p90RSK inhibitor BI-D1870. Data points were acquired corresponding to 45 min 100 ng/ml GF stimulation, and these were projected into the first 3 principal components in order to calculate the point cloud centroids. For clarity, only the centroids are shown in FIG. 7, corresponding to: TrkA 45 minute NGF, TrkB 45 minute BDNF before perturbation, and the perturbed centroid TrkB RSKi 45 minute BDNF.
# (§3) For a correct interpretation of perturbation data using the STV, we have to exclude the analytes that composed the modules of our core signaling network. Accordingly, the dimensionality of the molecular dataspace where the STV and perturbation vectors are calculated is reduced from 115 to 70, due to 45 analytes from Table S1A, related to the five proteins flagged in Table S3, being allocated to core network components, leaving the remaining 70 analytes to defined the reduced dimensionality dataspace.
# (§4) Let A with the radius-vector {right arrow over (x)}A be the centroid of the point cloud Ai, corresponding to the unperturbed state 1. Let Apert with the radius-vector {right arrow over (x)}Apert be the centroid of the point cloud (Ai^pert), corresponding to the perturbed state 1. Then the perturbation vector is defined as,
# (§5) The projection P of the perturbation vector {right arrow over (P)} on the STV ({right arrow over (s)}) is obtained as a dot product of these two vectors,
# (§6) In the molecular dataspace, we consider the STV as a vector {right arrow over (s)} of unit length directed from a centroid of a differentiation TrkA point cloud to a centroid of a proliferation TrkB point cloud. We now define the output of the DPD module as the S value,
# (§7) In this definition, the direction of the vector {right arrow over (n)}, which is orthogonal to the separation hyperplane, […]. Then, the DPD value (S) is positive for proliferation TrkB points and negative for differentiation TrkA points.
# (§8) Using the STV ({right arrow over (s)}), a perturbation vector ({right arrow over (P)}) and the unit length vector ({right arrow over (n)}) orthogonal to the separation hyperplane, we can calculate how the DPD value changes following each inhibitor perturbation. The DPD values, determined for the centroids of unperturbed (A) and perturbed (Apert) states, S and Spert, respectively, are the following (see Eq. 9),
# (§9) In order to reconstruct the posterior network, we used the drug perturbations described in Table 1, measuring 10 and 45 minute timepoints in TrkA and TrkB cells stimulated with NGF or BDNF, respectively.
# SH-SY5Y-TrkA [3] = test: cSTAR analysis of RPPA perturbation data (STV dot product P, DPD output S), TrkA cells; format: cell-based, human; details: ligand NGF, 45 minutes, calculated from RPPA data
# From the text: as §1, §2, §3, §4, §5, §6, §7, §8, §9
# SH-SY5Y-TrkB [4] = test: Differentiation of TrkB cells, live cell images at 72 hours; format: cell-based, human; details: for Experimentally measured percentage of differentiated cells: SH-SY5Y-TrkB, ligand BDNF; for Experiment (biological outcome): SY5Y-TrkB ± BDNF
# Procedure: FIG. 45 is a live cell image of TrkB cells stimulated with BDNF taken at 72 hours. FIG. 46 is a live cell image of BDNF-stimulated TrkB cells treated with 0.2 μM Trametinib taken at 72 hours. FIG. 47 is a live cell image of BDNF-stimulated TrkB cells treated with 2.5 μM Gefitinib taken at 72 hours. […] FIG. 49 is an additional experiment, being a live cell image of BDNF-stimulated TrkB cells treated with a combination of 2.5 μM Gefitinib and 0.05 μM Trametinib taken at 72 hours.
# TrkA cells = test: RPPA phosphoproteomics (raw fluorescent intensity) in TrkA cells stimulated with ligand and treated with inhibitors; format: cell-based, human
# From the text: (§10) Experiments used a custom made RPPA with 115 validated antibodies listed in Table S1A below to interrogate the activities of signaling pathways involved in TrkA/B signaling (Schramm et al., 2005), including MAPK (RAS-ERK, JNK, p38), PI3 kinase (AKT, mTORC1/2), JAK-STAT, PLCγ-PKC, TGFβ-SMAD, Wnt, cyclic-AMP, cell cycle (CDK1, Cyclins, Rb, p53, p21^WAF), apoptosis (BAX, BCL2, BCLx, Caspase 3), transcription factor (MYC, NFκB, JUN), and tyrosine kinase (SRC, EGFR, PDGFR, IGFR) pathways. In addition to the 115 antibodies, three controls are also included, Mouse 1, 2 and 3.
# (§11) For each antibody, RPPA phosphoproteomics data was collected, measured as raw fluorescent intensity values in TrkA and TrkB cells stimulated with a ligand and treated with different inhibitors. A sample of the data is reproduced in Table S1B below, showing the measured fluorescent intensity values for a small sample of antibodies and a small sample of treatment and stimulation conditions. The full data set, including replicated experiments, contains 118 rows (one per antibody) and 144 columns (each containing 118 measurements and relating to an experimental set of treatment and stimulation conditions, which include replicated experiments).
# (§12) In terms of the computational approach to processing the acquired data, each analyte level was first normalized on the GAPDH level, and then on the value of the same analyte in the absence of inhibitors and ligand stimulation to obtain fold-changes.
# (§13) FIGS. 25-30 show the simulated time courses with the experimental data points (dots with error bars) imposed on the model predictions (curves) for a number of inhibitors: S6K inhibitor (1 μM) FIG. 25A-F; TRK inhibitor (5 μM) FIG. 26A-F; MEK inhibitor (0.5 μM) FIG. 27 A-F; AKT inhibitor (1 μM) FIG. 28A-F; JNK inhibitor (1 μM) FIG. 29A-F; and RSK inhibitor (1 μM) FIG. 30A-F. The TrkA and TrkB cells were treated with the respective inhibitor, and stimulated with 100 ng/ml NGF and BDNF, respectively. Dashed lines are the time courses in the absence of inhibitor. Error bars represent SEM and are calculated using 3 biological replicates.
# phospho-Trk [5] = test: Phospho-Trk activity by Western blotting, TrkB cells; format: cell-based, human; details: single replicates
# Procedure: (§14) These antibodies detect phosphorylation sites that change protein activities or protein abundances. We measured pathway activities in untreated cells and cells treated with NGF (TrkA ligand) or BDNF (TrkB ligand) for 10 or 45 minutes. After normalization we calculated the fold changes in protein phosphorylation levels or abundances producing a data point for each protein.
# phospho-Trk [6] = test: Phospho-Trk activity by Western blotting, TrkA cells; format: cell-based, human; details: single replicates
# Procedure: as §14
# TrkB cells = test: RPPA phosphoproteomics (raw fluorescent intensity) in TrkB cells stimulated with ligand and treated with inhibitors; format: cell-based, human; details: No GF stimulation
# From the text: as §10, §11, §12, §13
Molecule,Experimentally measured percentage of differentiated cells (SH-SY5Y-TrkA [1]; 72 hours),Change in the DPD output ΔS (SH-SY5Y-TrkB [2]),DPD output S (SH-SY5Y-TrkB [2]),Change in the DPD output ΔS (SH-SY5Y-TrkA [3]),DPD output S (SH-SY5Y-TrkA [3]),Experimentally measured percentage of differentiated cells (SH-SY5Y-TrkB [4]; 72 hours),Experiment (biological outcome) (SH-SY5Y-TrkA [1]),other results
"CC[n+]1c(/C=C/N(C)c2ccccc2)n(-c2ccccc2)c2ccc(-c3nc4ccccc4s3)cc21.[I-] [AKT inhibitor, AKT inhibitor IV]",62% ± 3%,−1.5 ± 1.0,4.3 ± 0.8,−1.3 ± 0.6,−3.6 ± 0.5,34.3% ± 0.8%,–,–
COc1cc2ncnc(Nc3ccc(F)c(Cl)c3)c2cc1OCCCN1CCOCC1 [Gefitinib],–,–,–,–,–,–,–,"differentiation of TrkB cells (live cell images) (SH-SY5Y-TrkB [4]; BDNF-stimulated, 72 hours, combination 1.25 μM Gefitinib + 0.1 μM Trametinib or 2.5 μM + 0.05 μM, alone 2.5 μM Gefitinib, 0.2 μM Trametinib): not with either inhibitor applied separately"
"Cc1cc(NC(=O)c2cccc(NC(=O)/C=C/CN(C)C)c2)ccc1Nc1nccc(-c2cccnc2)n1 [JNK inhibitor, JNK-IN-8]",45% ± 5%,0.23 ± 0.82,5.95 ± 0.56,−0.07 ± 0.75,−2.4 ± 0.7,25% ± 4%,No effect,Experiment (biological outcome) (SH-SY5Y-TrkB [4]): No effect
"CC(=O)Nc1cccc(-n2c(=O)n(C3CC3)c(=O)c3c(Nc4ccc(I)cc4F)n(C)c(=O)c(C)c32)c1 [MEK inhibitor, Trametinib]",48% ± 3%,0.35 ± 0.72,6.1 ± 0.4,−0.7 ± 0.4,−3.0 ± 0.3,20% ± 1%,No effect,Bad P Ser112 raw fluorescent intensity (RPPA) (TrkA cells; 45 min NGF stimulation): 0.2853; Bad P Ser136 raw fluorescent intensity (RPPA) (TrkA cells; 45 min NGF stimulation): 0.07024; Bak raw fluorescent intensity (RPPA) (TrkA cells; 45 min NGF stimulation): 0.0709; CrkL P Tyr207 raw fluorescent intensity (RPPA) (TrkA cells; 45 min NGF stimulation): 0.1174; HSP27 (HSPB1) P Ser78 raw fluorescent intensity (RPPA) (TrkA cells; 45 min NGF stimulation): 0.04349; JAK1 raw fluorescent intensity (RPPA) (TrkA cells; 45 min NGF stimulation): 0.0516
"Oc1c2ccccc2c2c3c(cccc13)N=N2 [Trk inhibitor, SP600125]",64.4% ± 2.5%,−9.6 ± 0.6,−3.84 ± 0.03,−2.53 ± 0.35,−4.84 ± 0.16,55% ± 4%,–,phospho-Trk (phospho-Trk [5]; 10 min ligand stimulation): 3.716 and 1.408; phospho-Trk (phospho-Trk [5]; 45 min ligand stimulation): 3.539; phospho-Trk (phospho-Trk [6]; 10 min ligand stimulation): 0.8871 and 0.6065; phospho-Trk (phospho-Trk [6]; 45 min ligand stimulation): 0.724
"Cn1cc(-c2ccc(F)c(C(F)(F)F)c2)nc1C1CCN(c2ncnc3[nH]ncc23)CC1 [p70S6K inhibitor, LY2584702]",41% ± 5%,−7.8 ± 0.6,−2.10 ± 0.05,−1.5 ± 0.4,−3.8 ± 0.3,45% ± 3%,–,Bad P Ser112 raw fluorescent intensity (RPPA) (TrkA cells; 10 min NGF stimulation): 0.1181; Bad P Ser136 raw fluorescent intensity (RPPA) (TrkA cells; 10 min NGF stimulation): 0.109; Bak raw fluorescent intensity (RPPA) (TrkA cells; 10 min NGF stimulation): 0.211; CrkL P Tyr207 raw fluorescent intensity (RPPA) (TrkA cells; 10 min NGF stimulation): 0.2814; HSP27 (HSPB1) P Ser78 raw fluorescent intensity (RPPA) (TrkA cells; 10 min NGF stimulation): 0.2939; JAK1 raw fluorescent intensity (RPPA) (TrkA cells; 10 min NGF stimulation): 0.1005
"CC(C)CCN1c2nc(Nc3cc(F)c(O)c(F)c3)ncc2N(C)C(=O)C1C (stereo not shown) [p90RSK inhibitor, BI-D1870]",37.0% ± 2.4%,−1.7 ± 0.6,4.0 ± 0.2,1.8 ± 0.3,−0.54 ± 0.13,29% ± 4%,decreasing differentiation,"Bad P Ser112 raw fluorescent intensity (RPPA) (TrkB cells): 0.103; Bad P Ser136 raw fluorescent intensity (RPPA) (TrkB cells): 0.07225; Bak raw fluorescent intensity (RPPA) (TrkB cells): 0.1888; CrkL P Tyr207 raw fluorescent intensity (RPPA) (TrkB cells): 0.2852; HSP27 (HSPB1) P Ser78 raw fluorescent intensity (RPPA) (TrkB cells): 0.3221; JAK1 raw fluorescent intensity (RPPA) (TrkB cells): 0.1064; Perturbation vector component collinear with the STV (SH-SY5Y-TrkB [2]; TrkB cells, 45 min 100 ng/ml GF stimulation): moves the proliferation state towards differentiation; Experiment (biological outcome) (SH-SY5Y-TrkB [4]): weakly increasing differentiation"
"NGF: TrkA ligand, growth factor",–,–,–,–,–,–,–,"cell fate after growth factor treatment (SH-SY5Y-TrkA [1]; TrkA cells, 100 ng/ml, 72 hours): differentiation"
"BDNF: TrkB ligand, growth factor (protein, UniProt P23560 19-247, looked up) Neurotrophic factor BDNF …: APMKEANIRGQGGLAYPGVRTHGTLESVNGPKAGSRGLTSLADTFEHVIEELLDEDQKVRPNEENNKDADLYTSRVMLSSQVPLEPPLLFLLEEYKNYLDAANMSMRVRRHSDPARRGELSVCDSISEWVTAADKKTAVDMSGGTVTVLEKVPVSKGQLKQYFYETKCNPMGYTKEGCRGIDKRHWNSQCRTTQSYVRALTMDSKKRIGWRFIRIDTSCVCTLTIKRGR",–,–,–,–,–,–,–,"cell fate after growth factor treatment (SH-SY5Y-TrkB [4]; TrkB cells, 100 ng/ml, 72 hours): proliferation"
